# Biological target: T1, human chemokine receptor 2 isoform B (Homo sapiens, UniProt P41597)
# T1 construct: host or cells: CHOK1-CCR2B-A5 (CHO-K1)
# T1 sequence (P41597 1-360 isoform P41597-2): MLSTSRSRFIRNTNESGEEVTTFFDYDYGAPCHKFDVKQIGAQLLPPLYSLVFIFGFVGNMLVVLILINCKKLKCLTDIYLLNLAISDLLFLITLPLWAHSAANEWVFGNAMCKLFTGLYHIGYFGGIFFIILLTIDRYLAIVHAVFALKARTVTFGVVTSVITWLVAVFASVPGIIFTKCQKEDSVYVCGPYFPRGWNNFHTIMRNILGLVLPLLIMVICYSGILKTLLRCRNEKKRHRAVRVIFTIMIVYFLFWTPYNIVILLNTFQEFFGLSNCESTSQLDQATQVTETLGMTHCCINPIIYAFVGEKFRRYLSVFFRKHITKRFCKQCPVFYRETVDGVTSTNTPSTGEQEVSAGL
# Experiment: Calcium mobilization assay (CHOK1-CCR2B-A5 cells, FLIPR, MCP-1 stimulated)
# Type: cell-based
# Conditions: Ca mobilisation assay for CCR2, antagonist activity, 50% inhibition of specific calcium increases after 20 nM MCP-1
# Experimental: CHOK1-CCR2B-A5 cells (from Euroscreen) stably overexpressing the human chemokine receptor 2 isoform B were cultured in Nutrient Hams F12 medium supplemented with 5% FBS, 100 U/ml penicillin, 100 μg/ml streptomycin, 400 μg/ml G418 and 5 μg/ml puromycin.
# For the assay cells were grown overnight in 384-well black clear flat bottom polystyrene plates (Costar) at 37° C. at 5% CO2. After washing with DMEM, 20 mM Hepes, 2.5 mM probenecid, 0.1% BSA (DMEM assay buffer) cells were loaded with 4 μM Fluo-4 in the same DMEM assay buffer for 2 hours at 30° C. Excess dye was removed and cells were washed with DMEM assay buffer. 384-well compound plates were prepared with DMEM assay buffer/0.5% DMSO with or without various concentrations of test compounds. Usually compounds were tested for agonist and antagonist activity.
# Test compounds were added to the assay plate and agonist activity was monitored as fluorescence for 80 seconds with a FLIPR (488 nm excitation; 510-570 nm emission; Molecular Devices). After 20-30 min. of incubation at 30° C., 20 nM MCP-1 (R&D; Roche) was added and fluorescence was monitored again for 80 seconds. Increases in intracellular calcium are reported as maximum fluorescence after agonist exposure minus basal fluorescence before exposure. Antagonist activity is indicated as inhibitor concentration required for 50% inhibition of specific calcium increases.
row,SMILES,IC50 [nM]
1,"C[C@H]1C(=O)N2[C@@H](CCN3CCC4(CC4)[C@H](O)C3)CO[C@]2(C)CN1C(=O)Nc1ccc(Cl)c(Cl)c1 [Example 14, (3S,6S,8aR)-3-[2-((S)-4-Hydroxy-6-aza-spiro[2.5]oct-6-yl)-ethyl]-6,8a-dimethyl-5-oxo-hexahydro-oxazolo[3,2-a]pyrazine-7-carboxylic acid (3,4-dichloro-phenyl)-amide]",11.1
2,"C[C@H]1C(=O)N2[C@@H](CCC(=O)N3CCC4(CC4)[C@H](O)C3)CO[C@@H]2CN1C(=O)Nc1ccc(Cl)c(Cl)c1 [Example 35, (3S,6S,8aR)-3-[3-((S)-4-Hydroxy-6-aza-spiro[2.5]oct-6-yl)-3-oxo-propyl]-6-methyl-5-oxo-hexahydro-oxazolo[3,2-a]pyrazine-7-carboxylic acid (3,4-dichloro-phenyl)-amide]",5.7
3,"C[C@H]1C(=O)N2[C@@H](CCC(=O)N3CCC4(CC4)[C@H](O)C3)CO[C@H]2CN1C(=O)Nc1ccc(Cl)c(Cl)c1 [Example 36, (3S,6S,8aS)-3-[3-((S)-4-Hydroxy-6-aza-spiro[2.5]oct-6-yl)-3-oxo-propyl]-6-methyl-5-oxo-hexahydro-oxazolo[3,2-a]pyrazine-7-carboxylic acid (3,4-dichloro-phenyl)-amide]",9.3
4,"C[C@H]1C(=O)N2[C@@H](CCC(=O)N3CCC4(CC4)[C@H](O)C3)CO[C@H]2CN1C(=O)Nc1ccc(C(F)(F)F)c(Cl)c1 [Example 25, (3S,6S,8aS)-3-[3-((S)-4-Hydroxy-6-aza-spiro[2.5]oct-6-yl)-3-oxo-propyl]-6-methyl-5-oxo-hexahydro-oxazolo[3,2-a]pyrazine-7-carboxylic acid (3-chloro-4-trifluoromethyl-phenyl)-amide]",20
5,"C[C@H]1C(=O)N2C(CN1C(=O)Nc1ccc(Cl)c(Cl)c1)OC[C@@H]2CCC(=O)N1CCC2(CC2)[C@H](O)C1 (stereo partly drawn) [Example 23, (3S,6S)-3-[3-((S)-4-Hydroxy-6-aza-spiro[2.5]oct-6-yl)-3-oxo-propyl]-6-methyl-5-oxo-hexahydro-oxazolo[3,2-a]pyrazine-7-carboxylic acid (3,4-dichloro-phenyl)-amide]",14.4
6,"C[C@H]1C(=O)N2[C@@H](CCN3CCC(F)(F)CC3)COC[C@H]2CN1C(=O)Nc1ccc(C(F)(F)F)c(Cl)c1 [Example 57, (4S,7S,9aR)—N-(3-chloro-4-(trifluoromethyl)phenyl)-4-(2-(4,4-difluoropiperidin-1-yl)ethyl)-7-methyl-6-oxohexahydropyrazino[2,1-c][1,4]oxazine-8(1H)-carboxamide]",119
7,"C[C@H]1C(=O)N2[C@@H](CCCN3CCC4(CC4)[C@H](O)C3)COC2(C)CN1C(=O)Nc1ccc(C(F)(F)F)c(Cl)c1 (stereo partly drawn) [Example 13, (3S,6S)-3-[3-((S)-4-Hydroxy-6-aza-spiro[2.5]oct-6-yl)-propyl]-6,8a-dimethyl-5-oxo-hexahydro-oxazolo[3,2-a]pyrazine-7-carboxylic acid (3-chloro-4-trifluoromethyl-phenyl)-amide]",12.7
8,"C[C@H]1C(=O)N2[C@@H](CCCN3CCC4(CC4)C(F)(F)C3)COC[C@H]2CN1C(=O)Nc1ccc(Cl)c(Cl)c1 [Example 60, (4S,7S,9aR)—N-(3,4-dichlorophenyl)-4-(3-(4,4-difluoro-6-azaspiro[2.5]octan-6-yl)propyl)-7-methyl-6-oxohexahydropyrazino[2,1-c][1,4]oxazine-8(1H)-carboxamide]",48.2
9,"C[C@H]1C(=O)N2[C@@H](CCC(=O)N3CCC4(CC4)[C@H](O)C3)COC[C@H]2CN1C(=O)Nc1ccc(C(F)(F)F)c(Cl)c1 [Example 52, (4S,7S,9aR)—N-(3-chloro-4-(trifluoromethyl)phenyl)-4-(3-((S)-4-hydroxy-6-azaspiro[2.5]octan-6-yl)-3-oxopropyl)-7-methyl-6-oxohexahydropyrazino[2,1-c][1,4]oxazine-8(1H)-carboxamide]",14.7
10,"C[C@H]1C(=O)N2[C@H](CCN3CCC4(CC4)[C@H](O)C3)CCC[C@@H]2CN1C(=O)Nc1ccc(Cl)c(Cl)c1 [Example 39, (3S,6S,9aR)-6-[2-((S)-4-Hydroxy-6-aza-spiro[2.5]oct-6-yl)-ethyl]-3-methyl-4-oxo-octahydro-pyrido[1,2-a]pyrazine-2-carboxylic acid (3,4-dichloro-phenyl)-amide]",135
11,"C[C@H]1C(=O)N2C(CN1C(=O)Nc1ccc(Cl)c(Cl)c1)OCC[C@H]2CN1CCC2(CC2)[C@H](O)C1 (stereo partly drawn) [Example 30, (4S,7S)-4-((S)-4-Hydroxy-6-aza-spiro[2.5]oct-6-ylmethyl)-7-methyl-6-oxo-hexahydro-pyrazino[2,1-b][1,3]oxazine-8-carboxylic acid (3,4-dichloro-phenyl)-amide]",1.5

# Now from value to compound:
row,IC50 [nM],SMILES
1,32.8,"C[C@H]1C(=O)N2C(CN1C(=O)Nc1cccc(Cl)c1)OC[C@@H]2CCCN1CCC2(CC2)[C@H](O)C1 (stereo partly drawn) [Example 15, (3S,6S)-3-[3-((S)-4-Hydroxy-6-aza-spiro[2.5]oct-6-yl)-propyl]-6-methyl-5-oxo-hexahydro-oxazolo[3,2-a]pyrazine-7-carboxylic acid (3-chloro-phenyl)-amide]"
2,177,"C[C@H]1C(=O)N2[C@@H](CCCN3CCC4(CC4)[C@H](O)C3)CO[C@@H]2CN1C(=O)Nc1cccc(Cl)c1 [Example 20, (3S,6S,8aR)-3-[3-((S)-4-hydroxy-6-aza-spiro[2.5]oct-6-yl)-propyl]-6-methyl-5-oxo-hexahydro-oxazolo[3,2-a]pyrazine-7-carboxylic acid (3-chloro-phenyl)-amide]"
3,16,"C[C@H]1C(=O)N2C(CN1C(=O)Nc1ccc(F)c(Cl)c1)OC[C@@H]2CCN1CCC2(CC2)[C@H](O)C1 (stereo partly drawn) [Example 4, (3S,6S)-3-[2-((S)-4-Hydroxy-6-aza-spiro[2.5]oct-6-yl)-ethyl]-6-methyl-5-oxo-hexahydro-oxazolo[3,2-a]pyrazine-7-carboxylic acid (3-chloro-4-fluoro-phenyl)-amide]"
4,33.4,"C[C@H]1C(=O)N2[C@@H](CCCN3CCC4(CC4)[C@H](O)C3)CO[C@H]2CN1C(=O)Nc1cccc(Cl)c1 [Example 19, (3S,6S,8aS)-3-[3-((S)-4-Hydroxy-6-aza-spiro[2.5]oct-6-yl)-propyl]-6-methyl-5-oxo-hexahydro-oxazolo[3,2-a]pyrazine-7-carboxylic acid (3-chloro-phenyl)-amide]"
5,25,"C[C@H]1C(=O)N2[C@@H](CCN3CCC4(CC4)[C@H](O)C3)CO[C@@H]2CN1C(=O)Nc1ccc(F)c(Cl)c1 [Example 7, (3S,6S,8aR)-3-[2-((S)-4-hydroxy-6-aza-spiro[2.5]oct-6-yl)-ethyl]-6-methyl-5-oxo-hexahydro-oxazolo[3,2-a]pyrazine-7-carboxylic acid (3-chloro-4-fluoro-phenyl)-amide]"
6,2.2,"C[C@H]1C(=O)N2[C@@H](CCN3CCC4(CC4)[C@H](O)C3)CO[C@@H]2CN1C(=O)Nc1ccc(Cl)c(Cl)c1 [Example 2, (3S,6S,8aR)-3-[2-((S)-4-hydroxy-6-aza-spiro[2.5]oct-6-yl)-ethyl]-6-methyl-5-oxo-hexahydro-oxazolo[3,2-a]pyrazine-7-carboxylic acid (3,4-dichloro-phenyl)-amide]"
7,340,"C[C@H]1C(=O)N2[C@H](CCN3CCC4(CC4)[C@H](O)C3)COC[C@@H]2CN1C(=O)Nc1ccc(Cl)c(Cl)c1 [Example 40, (4R,7S,9aS)-4-[2-((S)-4-Hydroxy-6-aza-spiro[2.5]oct-6-yl)-ethyl]-7-methyl-6-oxo-hexahydro-pyrazino[2,1-c][1,4]oxazine-8-carboxylic acid (3,4-dichloro-phenyl)-amide]"
8,1.9,"C[C@H]1C(=O)N2[C@@H](CCN3CCC4(CC4)[C@H](O)C3)COC[C@H]2CN1C(=O)Nc1ccc(Cl)c(Cl)c1 [Example 31, (4S,7S,9aR)-4-[2-((S)-4-Hydroxy-6-aza-spiro[2.5]oct-6-yl)-ethyl]-7-methyl-6-oxo-hexahydro-pyrazino[2,1-c][1,4]oxazine-8-carboxylic acid (3,4-dichloro-phenyl)-amide]"
9,10.2,"C[C@H]1C(=O)N2[C@@H](CCCN3CCC4(CC4)[C@H](O)C3)CO[C@@H]2CN1C(=O)Nc1ccc(Cl)c(Cl)c1 [Example 18, (3S,6S,8aR)-3-[3-((S)-4-hydroxy-6-aza-spiro[2.5]oct-6-yl)-propyl]-6-methyl-5-oxo-hexahydro-oxazolo[3,2-a]pyrazine-7-carboxylic acid (3,4-dichloro-phenyl)-amide]"

# — US8471004B2, “Bicyclic compounds” (Hoffman-La Roche Inc., priority 2009, dated 2013)
